{"source": "patent US12209142B2", "about": "“SARS-CoV-2 epitope-targeted peptide immunostimulants” (Institute for Systems Biology, priority 2020, dated 2025)", "key": {"[1]": {"molecular_target": "T1, full-length recombinant MrkA protein (Klebsiella pneumoniae, UniProt P12267)", "T1 construct": "purchased MyBiosource MBS1248970", "T1 sequence (P12267 23-202)": "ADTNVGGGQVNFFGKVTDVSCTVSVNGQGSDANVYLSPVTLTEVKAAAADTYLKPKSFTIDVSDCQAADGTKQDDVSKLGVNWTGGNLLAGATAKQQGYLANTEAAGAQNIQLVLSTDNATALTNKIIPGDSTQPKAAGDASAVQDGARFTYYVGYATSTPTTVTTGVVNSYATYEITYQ", "assay": "Sandwich ELISA of PCC binding to full-length MrkA", "settings": "sandwich ELISA, biotinylated PCC immobilized", "experimental": "The screen yielded 26 hits (Table 2) that were sequenced, scaled up, and tested for binding to full-length recombinant MrkA in solution by single-point sandwich Enzyme-linked immunoassays (ELISAs) (FIG. 8). HPraGly is present before X1 in each peptide and Az4 follows X5 in each peptide.\nAn alanine scan was performed to establish which residues of cy(LLFFF) (SEQ ID NO:5) contribute most to MrkA binding. In this assay, a sandwich ELISA is used to quantify the affinity of several cy(LLFFF) (SEQ ID NO:5) analogues, in which one residue is substituted with an alanine, towards full-length MrkA protein. The ELISA results in FIG. 4 show lower signal for every alanine-substituted cy(LLFFF) (SEQ ID NO:5) analogue compared to unmodified cy(LLFFF) (SEQ ID NO:5), establishing that the native compound has the highest affinity. […] Thus, these two C-terminal phenylalanine residues (FIG. 3A, arrows in inset) play critical roles in MrkA binding, and are targets for modifications to improve binding. Another important detail of these alanine scan results is a strong dependence of MrkA binding on the residue position, independent of residue type. For example, cy(LLAFF) (SEQ ID NO:9) and cy(LLFFA) (SEQ ID NO:11) have very different binding affinities, despite having the same phenylalanine-to-alanine substitution.\nIn vitro ELISA assays. ELISA assays for MrkA-binding and epitope selectivity were performed on clear NeutrAvidin Coated High Capacity Plates (ThermoFisher, 15507). The buffer used for all washes and to dissolve all compounds was TBST+0.1% BSA (TBS+0.05% Tween 20+0.1% BSA, pH 7.3) and, unless otherwise stated, steps were conducted at room temperature. Each wash involved a brief 20 s agitation, and all conjugation, blocking, and incubation steps were performed with gentle agitation over the entire stated time period. The general procedure for an ELISA assay was: wash 3×200 μL/well, conjugate with 2 μM of biotinylated compound for 2 h at room temperature (100 μL/well), wash 3×200 μL/well, blocked overnight in 5 wt % milk at 4° C., wash […] with wash buffer, incubate with titrated compound (e.g., MrkA or epitope) for 1 h, […], incubate with primary antibody […] for 1 h (100 μL/well), wash 3×200 μL/well, incubate with 1:2,000 anti-rabbit secondary antibody-horseradish peroxidase conjugate (Cell signaling Technologies, 7074S) for 1 h, 3×200 μL/well, develop with the Microwell Peroxidase Substrate System (2-C) (SeraCare, 5120-0047) using 100 μL/well for 1-40 minutes, and quench using 1 M H2SO4 (aq.) at 100 μL/well. For MrkA binding assays, biotinylated PCCs were conjugated to the well surface, recombinant MrkA with an N-terminal 6×His-SUMO-tag (MyBiosource, MBS1248970) was titrated at the desired concentration, and the primary antibody was His-tag antibody, pAb, Rabbit (Genscript, A00174) at a 1:5,000 dilution. For epitope selectivity assays, biotinylated SynEps were conjugated, DNP-conjugated AR-PCCs were titrated at a desired concentration, and the primary antibody was anti-DNP antibody produced in Rabbit (Sigma-Aldrich, D9656) at a 1:8,000 dilution. […] For binding tests in the context of mouse sera, the “titrated compound” described in the steps above was dispersed in a solution containing the desired concentration of mouse serum."}, "[2]": {"test_system": "MrkA synthetic epitopes (SynEp 1-4)", "assay": "Epitope selectivity sandwich ELISA with immobilized SynEps", "type": "binding, Klebsiella pneumoniae", "settings": "DNP-conjugated ligand at 500 nM, anti-DNP detection", "experimental": "The particular epitope target to which cy(LLFFF) (SEQ ID NO:5) binds was next identified. A sandwich ELISA was performed in which the biotinylated SynEps were immobilized. The lead ligand cy(LLFFF) (SEQ ID NO:5), conjugated to a 2,4-dinitrophenyl (DNP) moiety, was titrated at a 500 nM concentration, and anti-DNP was used as a detection antibody. […] A background level for this assay was established using a biotinylated 6-mer polyethylene glycol (biotin-PEG6). […] As the native epitope for SynEp1 has a GRAVY score of 1.01, while the native versions of other SynEps range between −0.9 and −0.28, the negative ELISA signals may arise from the relatively high hydrophobicity of SynEp 1 versus others. The blocking may also result from the reactivity of the cysteine residue in SynEp 1. […] (SEQ ID NO:2) in native MrkA.\nIn vitro ELISA assays. ELISA assays for MrkA-binding and epitope selectivity were performed on clear NeutrAvidin Coated High Capacity Plates (ThermoFisher, 15507). The buffer used for all washes and to dissolve all compounds was TBST+0.1% BSA (TBS+0.05% Tween 20+0.1% BSA, pH 7.3) and, unless otherwise stated, steps were conducted at room temperature. Each wash involved a brief 20 s agitation, and all conjugation, blocking, and incubation steps were performed with gentle agitation over the entire stated time period. […]"}, "[3]": {"test_system": "Escherichia coli (E. coli) cells", "assay": "Whole-cell ELISA of biotinylated PCC binding", "settings": "biotinylated PCC at 5 μM", "procedure": "Whole-cell ELISAs. Detection of the binding of biotinylated PCCs to bacterial surface was performed as follows. 108 bacteria from a culture grown overnight were used for each test. Bacteria were incubated with PBS containing 1% BSA (PBS-BSA) for 1 h at 37° C., washed once with PBS, and then incubated with 5 μM of the biotinylated PCC in PBS-BSA for 1 h at 37° C. After washing thrice with PBS to remove unbound PCCs, bacteria were incubated with Streptavidin-HRP (1:1000) for 1 h at 37° C. Bacteria were washed thoroughly and the TMB reagent was added until visible coloration was observed. The reaction was quenched using 2N H2SO4 and absorbance was measured at 450 nm."}}, "note": "Entries after “also recorded” stand apart in the source; their conditions may differ. Where a SMILES comes first, the peptide text is derived from it. Bridges are numbered along the chain shown (N, C = ends). Triazole bridges read from a SMILES are 1,4-linked. [ ]: non-standard residue; d: D form. The star is where a group is joined. Biotin = O=C1N[C@H]2[C@H](CS[C@H]2CCCCC(=O)*)N1; Lys(N3) = [N-]=[N+]=NCCCC[C@H](N)C(=O)O; PEG5 = NCCOCCOCCOCCOCCOCCC(=O)O; Pra = C#CC[C@H](N)C(=O)O"}
{"smiles": "CC(C)C[C@@H]1NC(=O)[C@@H](NC(=O)CCOCCOCCOCCOCCOCCNC(=O)CCCC[C@@H]2SC[C@@H]3NC(=O)N[C@@H]32)Cc2cn(nn2)CCCC[C@@H](C(N)=O)NC(=O)[C@H](Cc2ccccc2)NC(=O)[C@H](Cc2ccccc2)NC(=O)[C@H](Cc2ccccc2)NC(=O)[C@H](CC(C)C)NC1=O", "note": "[cy(LLFFF)] ({Biotin-PEG5}-[Pra]LLFFF[Lys(N3)]-NH2; triazole 1-7; N-terminus and C-terminus assumed)", "values": [{"measurement": "EC50", "setting": "[1]", "result": 50, "unit": "nM"}, {"measurement": "binding to synthetic epitopes (SynEp selectivity)", "setting": "[2]", "result": "preferably bind synthetic epitope 2; also recorded: highest signals from SynEp 2; also recorded: selectively binds synthetic epitope 2 versus other targeted epitopes"}, {"measurement": "whole-cell ELISA signal, E. coli", "setting": "[3]", "result": "small absorbances; also recorded: only weak signals"}]}
